Data on four substances can be found in US6346390B1, “Receptor derived peptides involved in modulation of response to ligand binding” (Receptron, Inc., priority 1996, dated 2002).

The test system of one test is rat adipose cells. Briefly: Glucose transport in adipose cells. The format is cell-based. As for the experimental part: The biological activity of the peptides were measured by their effect on glucose uptake in rat adipose cells as described (Stagsted et al. (1991) J. Biol. Chem. 266:12844-12847). Briefly, rat adipose cells were obtained from epididymal fat pads and suspended in Krebs-Ringer HEPES buffer (KRH) with 5% bovine serum albumin at a lipocrit of 10% (final). […] Most of the peptides were not tested at higher concentrations than 30 μM.

The target in the next test is T1, human insulin receptor (Homo sapiens, UniProt P06213).
T1 construct: expressed in transfected cells; host or cells: HeLa cells, electroporated; pCR3 expression vector (Invitrogen, catalog no. K3000-01)
Briefly: Insulin receptor internalization in transfected HeLa cells. The format is cell-based. Conditions: for effect on insulin receptor internalization (in words): transfected cells, 10 μM peptide. As for the experimental part:
Insulin Receptor modification and expression. […] K3000-01) was transfected by electroporation into HeLa cells. Methods of electroporation are described in Boggs et al. (1986) Ex. Hematol. 149:988-994. In the transfected cells the receptors show insulin dependent internalization.
Receptor internalization was performed essentially as described in Stagsted et al. (1990) Cell 62:297-307. […] The cells were then diluted with 50 μl of KRHB (pH7.2) (no acid wash) or 50 μl of KRHB (pH 2.0) (acid wash) and incubated on ice for 5 min. The cells were finally harvested by centrifugation on top of silicone oil, and both free and cell-associated radioactivity was measured.

In the case of “GNEQSFRVDLRTLLRYAGGGNEQSFRVDLRTLLRYA [DS-A85]”, the “enhancement of glucose uptake” value in the test on rat adipose cells (insulin + 10 μM peptide (insulin alone 14±3 fold)) is listed as 22±4 fold.

With “KTDSQILKELEESSFRKTFEDYLH [pepIR, human insulin receptor derived peptide]”, in the test with human insulin receptor, the “effect on insulin receptor internalization (in words)” value is “inhibits receptor internalization to the same extent as DS-A85”. Besides, the “effect on glucose uptake (in words)” value in the test on rat adipose cells (at maximal insulin stimulation) is given as “did not significantly affect glucose uptake”.

On to TWLGRQGPEGPSSIPPGTLTTLW [GLUT4pep], for which the “per cent internalized receptor” value with human insulin receptor (in the presence of 10 μM peptide, time not stated, in the absence of peptide 64±7) was 6±9 per cent. Further, in the test with human insulin receptor, the “effect on insulin receptor internalization (in words)” value was “does not affect insulin receptor internalization”.

Take insulin: the entries for the “enhancement of glucose uptake” value in the test with rat adipose cells (10 nM insulin alone) and with rat adipose cells (10 μM insulin alone) were 12±4 fold and 14±3 fold, respectively.
